Consider 6 molecules from patent US6380192B1, “Triazine compounds and method of use therefor” (Alteon, Inc., priority 1996, dated 2002).

Data set [1] relates to N-acetyl glycyl-lysine methyl ester. The data set is described as follows: Inhibition of cross-linking of N-acetyl glycyl-lysine methyl ester in the presence of ribose (fluorescence). The data set is classed as biochemical. Conditions: 0.5 M sodium phosphate buffer pH 7.4, 37° C., 16-24 hours; read-out: IC50 inhibition of cross-linking of N-acetylglycyllysine methyl ester with ribose. The source says:
The following method was used to evaluate the ability of the compounds of the present invention to inhibit the cross-linking of N-acetyl glycyl-lysine methyl ester in the presence of ribose.
N-acetylglycyllysine methyl ester (DP in formula below)
Ribose (R in formula below)
Test compounds (C in formula below)
0.5 M sodium phosphate buffer pH 7.4
N-acetylglycyllysine methyl ester in 0.5M sodium phosphate buffer, pH 7.4
Test compounds dissolved in the above buffer and the pH is adjusted to 7.4, if necessary
Reaction mixtures are prepared as follows:
and incubated at 37° C. for 16-24 hours. At the end of the incubation period reaction mixture is diluted with 3 ml distilled water and the fluorescence is read using an excitation wavelength of 350 nm and emission wavelength of […]. The inhibition of the cross-linking is calculated from the decrease in the fluorescence in the presence of the test compounds according to the formula:
Inhibition (%)=100×[DPRC fluorescence−RC fluorescence]/DPR fluorescence
The Inhibition by various test compounds (IC50) is as follows: […]

For another data set, the system named is diabetic rats. The settings on record: cited from earlier work.
Another data set concerns kidney. The settings on record: in vivo; cited from earlier work.
Data set [2] has as its system streptozotocin-diabetic rat. Conditions: cited from earlier work.
The next data set relates to red blood cells. Conditions: in vivo; cited from earlier work.

Usually IC50 stands for the point on the concentration scale where inhibition reaches its midpoint. As usually defined, the melting point is the temperature, or range, at which the solid turns liquid.

Where a name gives a salt, the structure may show the parent alone. Some results are limits rather than exact numbers.

On to `Cc1nnc(NN)n(N)c1=O` [4-amino-3-hydrazino-6-methyl-1,2,4-triazin-5(4H)-one hydrochloride], for which the IC50 in data set [1] is less than 3000 µM.

Consider `Cl.NNc1nnc(Cc2ccc(O)cc2)c(=O)n1N` [4-amino-3-hydrazino-6-(4′-hydroxybenzyl)-1,2,4-triazin-5(4H)-one hydrochloride], for which the melting point was 218 to 222 °C (dec.). Besides, the IC50 in data set [1] is greater than 1000 µM.

Regarding `COc1cccc(C(=O)C=C2NN=C(N)N(N)C2=O)c1` [3,4-diamino-6-(3′-methoxyphenylcarbonylmethylene)-1,2,4-triazine-5(4H)-one], the IC50 in data set [1] is greater than 10000 µM.

`N=C(N)NN` [aminoguanidine]: in the data set with diabetic rats, the “Aortic wall protein cross-linking” value is reported as “diminishes aortic wall protein cross-linking”. In addition, in the data set on kidney, the “Immunoglobulin trapping in the kidney” value is “reduction of immunoglobulin trapping in the kidney”. In addition, the “Increased glomerular basement membrane thickness” value in data set [2] was “prevented”. Also, the “Diabetes-induced changes in the deformability of red blood cells” value in the data set on red blood cells is “has been shown to prevent it in vivo”.

As to `CCCCc1nnc(N)n(N)c1=O` [3,4-diamino-6-butyl-1,2,4-triazine-5(4H)-one], the IC50 in data set [1] is 1600 µM.

As to “2-methyl-[6′-(3′,4′-diamino-5(4H)-one-1,2,4-triazinyl)]hydrazide”, the IC50 in data set [1] worked out at 830 µM.
